Reference: ChEMBL document CHEMBL1201862, “PubChem BioAssay data set” (2004)
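Briefly, cells in 96-well plates were exposed to five compound concentrations for 48 h, and endpoints were estimated by linear interpolation. GI50: concentration for 50% inhibition of growth.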 The source made the active and inactive calls. Cut-off read from the data, not from the text of the source: active = GI50 up to about 1.1 µM and inactive = higher.

Assays:
Test in all cases: DTP human tumour cell line panel, 48 h
[1] = tested on: MDA-MB-231
[2] = tested on: T47D
[3] = tested on: Hs-578T
[4] = tested on: IGROV-1
[5] = tested on: LOX IMVI
[6] = tested on: RPMI-8226
[7] = tested on: OVCAR-8
[8] = tested on: SF-295
[9] = tested on: NCI-H522
[10] = tested on: MDA-MB-435
[11] = tested on: UO-31
[12] = tested on: SK-MEL-28
[13] = tested on: HOP-62
[14] = tested on: U-251
[15] = tested on: EKVX
[16] = tested on: RXF 393
[17] = tested on: KM12
[18] = tested on: ACHN
[19] = tested on: HCC 2998
[20] = tested on: UACC-257

Row | Compound | GI50 [1] | GI50 [2] | GI50 [3] | GI50 [4] | GI50 [5] | GI50 [6] | GI50 [7] | GI50 [8] | GI50 [9] | GI50 [10] | GI50 [11] | GI50 [12] | GI50 [13] | GI50 [14] | GI50 [15] | GI50 [16] | GI50 [17] | GI50 [18] | GI50 [19] | GI50 [20]
1 | O=C(O)C1(Nc2ccc(Cl)cc2)CCCC1 | > 100 µM (inactive) | > 100 µM (inactive) | > 100 µM (inactive) | > 100 µM (inactive) | > 100 µM (inactive) | > 100 µM (inactive) | > 100 µM (inactive) | 97.9 µM (inactive) | > 100 µM (inactive) | > 100 µM (inactive) | > 100 µM (inactive) | > 100 µM (inactive) | > 100 µM (inactive) | > 100 µM (inactive) | > 100 µM (inactive) | > 100 µM (inactive) | > 100 µM (inactive) | > 100 µM (inactive) |  | 
2 | CN(C)c1ccc(/C=C/C=c2/c3ccccc3n3c2cc(-c2ccccc2)[n+]3C)cc1 | 0.466 µM (active) | 0.0735 µM (active) |  | 0.238 µM (active) | 0.105 µM (active) | 0.149 µM (active) | 0.102 µM (active) | 0.288 µM (active) | 0.0548 µM (active) | 0.151 µM (active) | 0.333 µM (active) | 0.459 µM (active) | 0.303 µM (active) | 0.0387 µM (active) | 0.254 µM (active) | 0.063 µM (active) | 0.0598 µM (active) | 0.218 µM (active) | 0.303 µM (active) | 0.182 µM (active)
3 | COc1cccc2c1OC(c1cccc3ccccc13)C([N+](=O)[O-])=C2 (stereo not drawn) | 2.12 µM (inactive) | 2.22 µM (inactive) | 2.48 µM (inactive) | 2.49 µM (inactive) | 1.04 µM (active) | 3.45 µM (inactive) | 4.24 µM (inactive) | 1.88 µM (inactive) | 1.33 µM (inactive) | 1.51 µM (inactive) | 1.44 µM (inactive) | 1.53 µM (inactive) | 2.1 µM (inactive) | 1.56 µM (inactive) | 3.07 µM (inactive) | 1.31 µM (inactive) | 1.63 µM (inactive) | 1.6 µM (inactive) |  | 1.54 µM (inactive)
4 | O=C1CC(O)c2c(Cl)sc(Cl)c21 (stereo not drawn) | 27.7 µM (inactive) | 5.89 µM (inactive) |  | 8.13 µM (inactive) | 2.08 µM (inactive) | 7.19 µM (inactive) | 4.07 µM (inactive) | 23.2 µM (inactive) |  | 8.02 µM (inactive) | 6.49 µM (inactive) | 6.46 µM (inactive) | 14.1 µM (inactive) | 13.9 µM (inactive) | 18.7 µM (inactive) | 3.68 µM (inactive) | 3.9 µM (inactive) | 12.2 µM (inactive) | 27.2 µM (inactive) | 9.98 µM (inactive)
5 | O=C(O)c1nc2cc(C(F)(F)F)ccc2nc1Nc1ccc(Cl)c(Cl)c1 | 20.7 µM (inactive) | 14.1 µM (inactive) | 14 µM (inactive) | 18 µM (inactive) | 17.3 µM (inactive) | 6.78 µM (inactive) | 12.6 µM (inactive) | 10.3 µM (inactive) | 15.8 µM (inactive) | 5.12 µM (inactive) | 14.4 µM (inactive) |  | 14.5 µM (inactive) | 10.3 µM (inactive) | 17.9 µM (inactive) | 20.9 µM (inactive) | 12.9 µM (inactive) | 11.6 µM (inactive) |  | 20.7 µM (inactive)
6 | O=C(O)[C@H]1CCCN1CP(=O)(O)CN1CCC[C@@H]1C(=O)O | > 100 µM (inactive) | > 100 µM (inactive) | > 100 µM (inactive) | > 100 µM (inactive) | > 100 µM (inactive) |  | > 100 µM (inactive) | > 100 µM (inactive) | > 100 µM (inactive) | > 100 µM (inactive) | > 100 µM (inactive) | > 100 µM (inactive) | > 100 µM (inactive) | > 100 µM (inactive) | > 100 µM (inactive) | > 100 µM (inactive) | > 100 µM (inactive) | > 100 µM (inactive) |  | > 100 µM (inactive)
7 | COc1ccc(NC(=O)CC(=O)NN)cc1 | > 100 µM (inactive) | > 100 µM (inactive) | > 100 µM (inactive) | > 100 µM (inactive) | > 100 µM (inactive) | > 100 µM (inactive) | > 100 µM (inactive) | > 100 µM (inactive) | > 100 µM (inactive) | > 100 µM (inactive) | > 100 µM (inactive) |  | > 100 µM (inactive) | > 100 µM (inactive) | > 100 µM (inactive) | > 100 µM (inactive) | > 100 µM (inactive) | > 100 µM (inactive) |  | > 100 µM (inactive)
8 | CCOC(=O)CNC(=O)C(CSCC1C(=O)Nc2ccccc21)NC(=O)CCC(N)C(=O)OCC (stereo not drawn) | 1.58 µM (inactive) | 5.65 µM (inactive) | 4.21 µM (inactive) | 1.15 µM (inactive) | 0.46 µM (active) | 1.27 µM (inactive) | 2.81 µM (inactive) | 2.77 µM (inactive) | 1.63 µM (inactive) | 1.32 µM (inactive) | 1.23 µM (inactive) | 1.68 µM (inactive) | 2.1 µM (inactive) | 1.31 µM (inactive) | 1.75 µM (inactive) | 1.19 µM (inactive) | 2.89 µM (inactive) | 1.62 µM (inactive) |  | 4.16 µM (inactive)
9 | C#CCn1c(=O)c(Cl)cn(/C(=C/C(=O)OCC)C(=O)OCC)c1=O | 18.2 µM (inactive) | 2.34 µM (inactive) | 42.9 µM (inactive) | 17.3 µM (inactive) | 8.32 µM (inactive) | 1.91 µM (inactive) | 5.48 µM (inactive) | > 47.5 µM (inactive) | 3.38 µM (inactive) | 18 µM (inactive) | 3.4 µM (inactive) | 19 µM (inactive) | 20 µM (inactive) | 17.7 µM (inactive) | 16.1 µM (inactive) | 2.12 µM (inactive) | 31.9 µM (inactive) | 2.03 µM (inactive) |  | 5.07 µM (inactive)
10 | N#C/N=C(/NCc1ccccc1)N(Cc1ccccc1)Cc1ccccc1 | 18.3 µM (inactive) | 35 µM (inactive) |  | 17.4 µM (inactive) | 19.2 µM (inactive) | 22.9 µM (inactive) | 20.2 µM (inactive) | 15.3 µM (inactive) | 15.1 µM (inactive) | 49.1 µM (inactive) | 16.4 µM (inactive) | 27.5 µM (inactive) | > 31.6 µM (inactive) | 24.7 µM (inactive) | > 10 µM (inactive) | 27.7 µM (inactive) | 27.6 µM (inactive) | > 10 µM (inactive) | 32.9 µM (inactive) | > 10 µM (inactive)
11 | O=C(Nc1ccccc1)N1N=C(c2ccccc2)C1c1ccccc1 (stereo not drawn) | 62.1 µM (inactive) | 59.6 µM (inactive) | 24.2 µM (inactive) | 40.4 µM (inactive) | 29.9 µM (inactive) | 14 µM (inactive) | 33.8 µM (inactive) | 24.3 µM (inactive) | 19.9 µM (inactive) |  | 15.2 µM (inactive) | 53.7 µM (inactive) |  | 36.2 µM (inactive) | 40.4 µM (inactive) | 17.3 µM (inactive) | 29.9 µM (inactive) | 22 µM (inactive) | 31.3 µM (inactive) | 31.8 µM (inactive)
